# Measurements as given in patent US20240301409A1, “Chemically Modified Small Activating RNA” (RACTIGEN THERAPEUTICS, priority 2021, published 2024).
# System: J82 cells
# Experiment: Cellular proliferation assay (CCK8) in J82 cells, combined with Mitomycin C or valrubicin
# Type: cell-based, human
# Experimental: J82 cells were transfected with RAG1-40-31 at concentrations of 0.1, 0.5, 1, 5, 10, 25 and 50 nM for 24 hours, and then Mitomycin C at concentrations of 1, 10, 100, 1000 and 10000 nM was added. The combined treatment was carried out with concentrations in pairs. After treatment, the proliferation of cells was detected using CCK8 kit. FIGS. 14A-14B show the relative proliferation proportion of J82 cells after the combined treatment with chemically modified saRNA RAG1-40-31 and valrubicin. […] Control and DMSO are the blank transfection control and the solvent for dilution control, respectively.
# J82 cells were transfected with RAG1-40-31 at concentrations of 0.1, 0.5, 1, 5, 10, 25 and 50 nM for 24 hours, and then valrubicin at concentrations of 1, 10, 100, 1000 and 10000 nM was added. The combined treatment was carried out with concentrations in pairs. After treatment, the cellular proliferation was detected by CCK8 kit. FIGS. 15A-15B show the relative proliferation proportion of T24 cells after the combined treatment with chemically modified saRNA RAG1-40-31 and Mitomycin C. […] Control and DMSO are the blank transfection control and the solvent for dilution control, respectively.
# Human bladder cancer cells Ku-7-LG (ATCC), J82 (ATCC) and T24 (ATCC) were cultured in McCoy medium (Gibco) comprising 10% calf serum (Sigma-Aldrich) and 1% penicillin/Streptomycin (Gibco). Cells were cultured at 37° C. under 5% CO2. Ku-7-LG, J82 and T24 cells were plated into 12-well plates at 10×10^4 cells per well, transfected with the small RNA at a concentration of 10 nM (unless otherwise specified) for three days, using RNAiMax (Invitrogen, Carlsbad, CA) according to the manufacturer's instructions. Two replicate wells were set for each treatment.
# Cells were plated in a 96-well plate at 2˜4×10^3 cells/well, cultured overnight, and transfected with the oligonucleotide duplexes. Three days after transfection, CCK8 (Dojindo) was used to detect cellular proliferation following manufacturer's instructions. The experimental steps are briefly described as follows: 10 μL of CCK8 solution was added to each well, incubated at 37° C. for 1 hour, and then the absorbance at 450 nm was measured using a microplate reader.
# In this example, chemically modified saRNA RAG1-40-31 was used in combination with clinical chemical agents to evaluate the suppressing effect of the combined agents on cancer cells.
substance,measurement,setting,value
"RAG1-40-31: saRNA duplex: sense fCfCAACUCAUUCUCCAAG*U*C (SEQ ID NO 16); antisense U*A*fCfUfUGGAGAAfUGAGfUfUGG*fC*A (SEQ ID NO 12) (sense CCAACUCAUUCUCCAAGUC; antisense UACUUGGAGAAUGAGUUGGCA; 2'-F and phosphorothioate modifications; modified_base (1)..(2) (1,2)=2′-fluoro; modified_base (17)..(19) (17,18,19)=phosphorothioate (PS) backbone modification; modified_base (2)..(21) (2,3,19,20,21)=phosphorothioate (PS) backbone modification; modified_base (3)..(20) (3,4,5,12,16,17,20)=2′-fluoro)",Relative proliferation proportion of J82 cells,RAG1-40-31 0.1 nM + MMC 10000 nM,1.5%
same,Relative proliferation proportion of J82 cells,RAG1-40-31 0.1 nM + valrubicin 1 nM,71.0%
same,Relative proliferation proportion of J82 cells,RAG1-40-31 0.1 nM + valrubicin 10 nM,58.2%
same,Relative proliferation proportion of J82 cells,RAG1-40-31 0.1 nM + valrubicin 100 nM,73.2%
same,Relative proliferation proportion of J82 cells,RAG1-40-31 0.1 nM + valrubicin 1000 nM,26.9%
same,Relative proliferation proportion of J82 cells,RAG1-40-31 0.1 nM + valrubicin 10000 nM,9.9%
same,Relative proliferation proportion of J82 cells,"RAG1-40-31 0.1 nM, Control (no MMC)",97.9%
same,Relative proliferation proportion of J82 cells,"RAG1-40-31 0.1 nM, Control (no valrubicin)",85.1%
same,Relative proliferation proportion of J82 cells,RAG1-40-31 0.5 nM + MMC 1 nM,70.1%
same,Relative proliferation proportion of J82 cells,RAG1-40-31 0.5 nM + MMC 10 nM,69.3%
same,Relative proliferation proportion of J82 cells,RAG1-40-31 0.5 nM + MMC 100 nM,34.9%
same,Relative proliferation proportion of J82 cells,RAG1-40-31 0.5 nM + MMC 1000 nM,10.8%
same,Relative proliferation proportion of J82 cells,RAG1-40-31 0.5 nM + MMC 10000 nM,0.9%
same,Relative proliferation proportion of J82 cells,RAG1-40-31 0.5 nM + valrubicin 1 nM,62.4%
same,Relative proliferation proportion of J82 cells,RAG1-40-31 0.5 nM + valrubicin 10 nM,54.1%
same,Relative proliferation proportion of J82 cells,RAG1-40-31 0.5 nM + valrubicin 100 nM,72.8%
same,Relative proliferation proportion of J82 cells,RAG1-40-31 0.5 nM + valrubicin 1000 nM,24.4%
same,Relative proliferation proportion of J82 cells,RAG1-40-31 0.5 nM + valrubicin 10000 nM,7.7%
same,Relative proliferation proportion of J82 cells,"RAG1-40-31 0.5 nM, Control (no MMC)",89.9%
same,Relative proliferation proportion of J82 cells,"RAG1-40-31 0.5 nM, Control (no valrubicin)",77.8%
same,Relative proliferation proportion of J82 cells,RAG1-40-31 1 nM + MMC 1 nM,55.8%
same,Relative proliferation proportion of J82 cells,RAG1-40-31 1 nM + MMC 10 nM,57.2%
same,Relative proliferation proportion of J82 cells,RAG1-40-31 1 nM + MMC 100 nM,30.1%
same,Relative proliferation proportion of J82 cells,RAG1-40-31 1 nM + MMC 1000 nM,9.3%
same,Relative proliferation proportion of J82 cells,RAG1-40-31 1 nM + MMC 10000 nM,1.4%
same,Relative proliferation proportion of J82 cells,RAG1-40-31 1 nM + valrubicin 1 nM,59.8%
same,Relative proliferation proportion of J82 cells,RAG1-40-31 1 nM + valrubicin 10 nM,51.6%
same,Relative proliferation proportion of J82 cells,RAG1-40-31 1 nM + valrubicin 100 nM,54.4%
same,Relative proliferation proportion of J82 cells,RAG1-40-31 1 nM + valrubicin 1000 nM,22.7%
same,Relative proliferation proportion of J82 cells,RAG1-40-31 1 nM + valrubicin 10000 nM,7.5%
same,Relative proliferation proportion of J82 cells,"RAG1-40-31 1 nM, Control (no MMC)",79.8%
same,Relative proliferation proportion of J82 cells,"RAG1-40-31 1 nM, Control (no valrubicin)",73.9%
same,Relative proliferation proportion of J82 cells,RAG1-40-31 5 nM + MMC 1 nM,42.8%
same,Relative proliferation proportion of J82 cells,RAG1-40-31 5 nM + MMC 10 nM,40.8%
same,Relative proliferation proportion of J82 cells,RAG1-40-31 5 nM + MMC 100 nM,26.2%
same,Relative proliferation proportion of J82 cells,RAG1-40-31 5 nM + MMC 1000 nM,7.2%
same,Relative proliferation proportion of J82 cells,RAG1-40-31 5 nM + MMC 10000 nM,1.2%
same,Relative proliferation proportion of J82 cells,RAG1-40-31 5 nM + valrubicin 1 nM,37.9%
same,Relative proliferation proportion of J82 cells,RAG1-40-31 5 nM + valrubicin 10 nM,46.6%
same,Relative proliferation proportion of J82 cells,RAG1-40-31 5 nM + valrubicin 100 nM,50.9%
same,Relative proliferation proportion of J82 cells,RAG1-40-31 5 nM + valrubicin 1000 nM,22.6%
same,Relative proliferation proportion of J82 cells,RAG1-40-31 5 nM + valrubicin 10000 nM,5.5%
same,Relative proliferation proportion of J82 cells,"RAG1-40-31 5 nM, Control (no MMC)",59.3%
same,Relative proliferation proportion of J82 cells,"RAG1-40-31 5 nM, Control (no valrubicin)",58.4%
same,Relative proliferation proportion of J82 cells,RAG1-40-31 10 nM + MMC 1 nM,37.0%
same,Relative proliferation proportion of J82 cells,RAG1-40-31 10 nM + MMC 10 nM,37.7%
same,Relative proliferation proportion of J82 cells,RAG1-40-31 10 nM + MMC 100 nM,22.2%
same,Relative proliferation proportion of J82 cells,RAG1-40-31 10 nM + MMC 1000 nM,6.9%
same,Relative proliferation proportion of J82 cells,RAG1-40-31 10 nM + MMC 10000 nM,1.0%
same,Relative proliferation proportion of J82 cells,RAG1-40-31 10 nM + valrubicin 1 nM,33.1%
same,Relative proliferation proportion of J82 cells,RAG1-40-31 10 nM + valrubicin 10 nM,37.1%
same,Relative proliferation proportion of J82 cells,RAG1-40-31 10 nM + valrubicin 100 nM,40.4%
same,Relative proliferation proportion of J82 cells,RAG1-40-31 10 nM + valrubicin 1000 nM,20.3%
same,Relative proliferation proportion of J82 cells,RAG1-40-31 10 nM + valrubicin 10000 nM,4.3%
same,Relative proliferation proportion of J82 cells,"RAG1-40-31 10 nM, Control (no MMC)",48.9%
same,Relative proliferation proportion of J82 cells,"RAG1-40-31 10 nM, Control (no valrubicin)",50.6%
same,Relative proliferation proportion of J82 cells,RAG1-40-31 25 nM + MMC 1 nM,20.8%
same,Relative proliferation proportion of J82 cells,RAG1-40-31 25 nM + MMC 10 nM,25.7%
same,Relative proliferation proportion of J82 cells,RAG1-40-31 25 nM + MMC 100 nM,17.2%
same,Relative proliferation proportion of J82 cells,RAG1-40-31 25 nM + MMC 1000 nM,5.0%
same,Relative proliferation proportion of J82 cells,RAG1-40-31 25 nM + MMC 10000 nM,0.4%
same,Relative proliferation proportion of J82 cells,RAG1-40-31 25 nM + valrubicin 1 nM,26.1%
same,Relative proliferation proportion of J82 cells,RAG1-40-31 25 nM + valrubicin 10 nM,23.9%
same,Relative proliferation proportion of J82 cells,RAG1-40-31 25 nM + valrubicin 100 nM,26.3%
same,Relative proliferation proportion of J82 cells,RAG1-40-31 25 nM + valrubicin 1000 nM,13.3%
same,Relative proliferation proportion of J82 cells,RAG1-40-31 25 nM + valrubicin 10000 nM,2.7%
same,Relative proliferation proportion of J82 cells,"RAG1-40-31 25 nM, Control (no MMC)",38.4%
same,Relative proliferation proportion of J82 cells,"RAG1-40-31 25 nM, Control (no valrubicin)",45.6%
same,Relative proliferation proportion of J82 cells,RAG1-40-31 50 nM + MMC 1 nM,25.9%
same,Relative proliferation proportion of J82 cells,RAG1-40-31 50 nM + MMC 10 nM,25.8%
same,Relative proliferation proportion of J82 cells,RAG1-40-31 50 nM + MMC 100 nM,13.9%
same,Relative proliferation proportion of J82 cells,RAG1-40-31 50 nM + MMC 1000 nM,3.4%
same,Relative proliferation proportion of J82 cells,RAG1-40-31 50 nM + MMC 10000 nM,0.6%
same,Relative proliferation proportion of J82 cells,RAG1-40-31 50 nM + valrubicin 1 nM,19.7%
same,Relative proliferation proportion of J82 cells,RAG1-40-31 50 nM + valrubicin 10 nM,21.4%
same,Relative proliferation proportion of J82 cells,RAG1-40-31 50 nM + valrubicin 100 nM,23.9%
same,Relative proliferation proportion of J82 cells,RAG1-40-31 50 nM + valrubicin 1000 nM,14.8%
same,Relative proliferation proportion of J82 cells,RAG1-40-31 50 nM + valrubicin 10000 nM,3.2%
same,Relative proliferation proportion of J82 cells,"RAG1-40-31 50 nM, Control (no MMC)",34.8%
same,Relative proliferation proportion of J82 cells,"RAG1-40-31 50 nM, Control (no valrubicin)",33.5%
